In patent US11649209B2, “Crystalline freebase forms of a biphenyl compound” (THERAVANCE BIOPHARMA R&D IP, LLC, priority 2009, dated 2023):
Values after ≈ are worked out from the molar mass of the structure shown. Read-outs that look alike come from different tables or passages of the source.

Assays:
[1] = Storage stability of micronized material (PXRD, DSC); type: physicochemical; conditions: 3 months at 40° C./20% RH, 50° C./ambient humidity
Protocol: For reference, the particle size of the input crystalline freebase Form III was X10=5.58 μm X50=18.2 μm, and X90=49.7 μm. Micronization yielded particles in the respirable size range.
There was an additional small thermal event in the micronized material at 87° C., likely due to crystallization.

pH solubility = type: physicochemical; conditions: for solubility: thermodynamic from solid
Protocol: Solubility in water is 0.66 mg/mL with a natural pH of 8.9.

[2] = Micronization, particle size by laser light diffraction; type: physicochemical
Source text: Samples of the crystalline freebase Form III were micronized using either an APTM 4″ micronizer and the particle size determined buy laser light diffraction.

Solution stability = type: physicochemical
Protocol: The crystalline freebase Form III solutions are stable in pH 4 and pH 6 buffers for up to 7 days at 50° C. or exposed to light. The solutions are stable in water and saline for 7 days at room temperature, protected from light.

[3] = Exposure to atmospheric moisture, elevated temperature and humidity; type: physicochemical
[4] = Gravimetric vapor sorption assessment; type: physicochemical
Protocol: Gravimetric vapor sorption (GVS) studies were performed using a Surface
Measurements System DVS-1 instrument for generation of full sorption isotherm using water vapor perfusion at 25° C. A sample size of approximately 7 mg was placed into a clean and dry tared sample mesh pan and weighed using the internal balance. The target relative humidity (RH) ranges were from 30% to 90%, then 90% to 0% and 0% to 30% with 10% steps. The point of equilibrium was automatically determined using a 0.02 dm/dt asymptote setting.

[5] = system: pilocarpine-induced salivation; test: Rat antisialagogue assay; type: in vivo; conditions: evaluated at 1, 6 and 24 hr post-dose
Protocol: Rats (Sprague-Dawley, male, 250-350 g) are dosed, anesthetized and cannulated as described for Assay 3. At predetermined time points and after surgery, animals are placed on their dorsal side at a 20° incline with their head in a downward slope. A pre-weighed gauze pad is inserted in the animal's mouth and the muscarinic agonist pilocarpine (PILO) (3 mg/kg, iv.) is administered. Saliva produced during 10 minutes post-PILO is measured gravimetrically by determining the weight of the gauze pad before and after PILO. Antisialagogue effects are expressed as % inhibition of salivation relative to control animals.
The rat antisialagogue assay was developed to assess systemic exposure and calculate the lung selectivity index (LSI) of test compounds. The standard, tiotropium, was evaluated in this model at 1, 6, and 24 hr post-dose. […] This finding is consistent with the peak effects observed in the Einthoven assay.
This model is a modified version of the procedure described in Rechter, “Estimation of anticholinergic drug effects in mice by antagonism against pilocarpine-induced salivation” Ata Pharmacol Toxicol 24:243-254 (1996). The mean weight of saliva in vehicle-treated animals, at each pre-treatment time, is calculated and used to compute % inhibition of salivation, at the corresponding pre-treatment time, at each dose.

MCh response = test: Rat Einthoven assay (bronchoprotection against MCh); type: in vivo; conditions: for ID50: 1.5 hrs post-dose, inhalation
Protocol: All test compounds are diluted in sterile water and are dosed via the inhalation route (IH). […] Each test compound solution is nebulized over a 10 minute time period in a pie shaped dosing chamber capable of holding six rats. At predetermined time points after inhalation of compound, the Einthoven assay is performed. […] The jugular vein is catheterized with saline filled polyethylene catheters (PE-50) and used to infuse MCh. The trachea is then dissected and cannulated with a 14G needle and used for rat ventilation during pulmonary evaluation. Once surgery is complete, rats are ventilated using a piston respirator set at a stroke volume of 1 ml/100 g body weight but not exceeding 2.5 ml volume, and at a rate of 90 strokes per minute. The changes in pressure that occur with each breath are measured. […] The MCh is infused for 2.5 minutes from a syringe pump at a rate of 2 mL/kg/min. The animals are euthanized upon completion of the studies. Changes in ventilation pressure (cm H2O) in treated animals are expressed as % inhibition of MCh response relative to control animals.

hM3 receptor = target: T1, hM3 receptor (Homo sapiens, UniProt P20309); test: Blockade of agonist-mediated calcium release via FLIPR; type: cell-based; conditions: CHO cells stably expressing the hM3 receptor
T1 construct: expressed in transfected cells
T1 sequence (P20309 whole entry): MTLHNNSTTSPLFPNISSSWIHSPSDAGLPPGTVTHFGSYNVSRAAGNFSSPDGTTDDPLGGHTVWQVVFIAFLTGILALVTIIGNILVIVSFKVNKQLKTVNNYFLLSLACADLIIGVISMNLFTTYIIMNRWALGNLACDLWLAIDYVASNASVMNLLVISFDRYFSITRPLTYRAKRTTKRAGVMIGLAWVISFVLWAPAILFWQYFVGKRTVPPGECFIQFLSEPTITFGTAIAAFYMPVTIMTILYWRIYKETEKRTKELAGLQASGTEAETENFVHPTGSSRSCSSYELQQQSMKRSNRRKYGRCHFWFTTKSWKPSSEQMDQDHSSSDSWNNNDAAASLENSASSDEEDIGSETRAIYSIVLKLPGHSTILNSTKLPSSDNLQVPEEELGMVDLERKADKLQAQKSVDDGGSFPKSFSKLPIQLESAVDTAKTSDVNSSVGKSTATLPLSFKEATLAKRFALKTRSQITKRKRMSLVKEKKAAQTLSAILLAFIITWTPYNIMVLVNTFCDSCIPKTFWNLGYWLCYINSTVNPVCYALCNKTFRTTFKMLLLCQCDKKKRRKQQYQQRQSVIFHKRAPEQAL
Source text: Muscarinic receptor subtypes (M1, M3 and M5 receptors), which couple to Gq proteins, activate the phospholipase C (PLC) pathway upon agonist binding to the receptor. As a result, activated PLC hydrolyzes phosphatyl inositol diphosphate (PIP2) to diacylglycerol (DAG) and […] (IP3), which in turn generates calcium release from intracellular stores, i.e., endoplasmic and sarcoplasmic reticulum. The FLIPR (Molecular Devices, Sunnyvale, Calif.) assay capitalizes on this increase in intracellular calcium by using a calcium sensitive dye (Fluo-4AM, Molecular Probes, Eugene, Oreg.) that fluoresces when free calcium binds. This fluorescence event is measured in real time by the FLIPR, which detects the change in fluorescence from a monolayer of cells cloned with human M1 and M3, and chimpanzee M5 receptors. Antagonist potency can be determined by the ability of antagonists to inhibit agonist-mediated increases in intracellular calcium. […]
To determine antagonist potency, the dose-dependent stimulation of intracellular Ca^2+ release for oxotremorine is first determined so that antagonist potency can later be measured against oxotremorine stimulation at an EC90 concentration. […]
The change of fluorescence is expressed as maximum fluorescence minus baseline fluorescence for each well. […]

[6] = target: T2, M3 muscarinic receptor subtype (Homo sapiens, UniProt P20309); test: Radioligand binding assay ([3H]-NMS displacement) on muscarinic receptor subtypes; conditions: this or a similar assay
T2 construct: expressed in transfected cells
T2 sequence (P20309 whole entry): as above
Protocol: CHO cell lines stably expressing cloned human hM1, hM2, hM3 and hM4 muscarinic receptor subtypes, respectively, were grown to near confluency in medium consisting of HAM's F-12 supplemented with 10% FBS and 250 μg/mL Geneticin. The cells were grown in a 5% CO2, 37° C. incubator and lifted with 2 mM EDTA in dPBS. Cells were collected by 5 minute centrifugation at 650×g, and cell pellets were either stored frozen at −80° C. or membranes were prepared immediately. For membrane preparation, cell pellets were resuspended in lysis buffer and homogenized with a Polytron PT-2100 tissue disrupter (Kinematica AG; 20 seconds×2 bursts). Crude membranes were centrifuged at 40,000×g for 15 minutes at 4° C. […] The protein concentration of the membrane suspension was determined by the method described in Lowry, O. et al.,Journal of Biochemistry 193:265 (1951). […]
Radioligand binding assays were performed in 96-well microtiter plates in a total assay volume of […]. […] Filter plates were rinsed three times with wash buffer (10 mM HEPES) to remove unbound radioactivity. […] The plates were then counted in a PerkinElmer Topcount liquid scintillation counter (PerkinElmer Inc., Wellesley, Mass.). Binding data were analyzed by nonlinear regression analysis with the GraphPad Prism Software package (GraphPad Software, Inc., San Diego, Calif.) using the one-site competition model. […]

[7] = input material before micronization

Compound: CN(CCN1CCC(OC(=O)Nc2ccccc2-c2ccccc2)CC1)C(=O)c1ccc(CN2CCC(C(N)=O)CC2)cc1 [Form III, Biphenyl-2-ylcarbamic Acid 1-(2-{[4-(4-Carbamoylpiperidin-1-ylmethyl)benzoyl]methylamino}ethyl)piperidin-4-yl Ester]
- change in PXRD after storage ([1]; 40° C./75% RH (uncapped)): No changes were observed
- amorphous content by DSC after storage ([1]; 40° C./75% RH naked): no evidence of amorphous content
- solubility (pH solubility; aqueous buffer, in media up to pH 7, read-out: Solubility): > 2000 µg/mL
- natural pH in water (pH solubility; at solubility in water): 8.9
- solubility (pH solubility; simulated lung fluid, fassgf or other biorelevant, no change between 4 hour and 24 hour measurements, read-out: Solubility in simulated lung fluid): 460 µg/mL (≈ 770 µM)
- solubility (pH solubility; water, pH 8.9, water, natural pH of 8.9, read-out: Solubility in water): 660 µg/mL (≈ 1100 µM)
- Particle size X10 [2, 7]: 5.58 μm
- Particle size X50 [2, 7]: 18.2 μm
- Particle size X90 [2, 7]: 49.7 μm
- Particle size X10 ([2]; micronized material): 1.27 μm
- Particle size X50 ([2]; micronized material): 2.69 μm
- Particle size X90 ([2]; micronized material): 5.25 μm
- solution stability in water and saline (Solution stability; 7 days at room temperature, protected from light): stable
- solution stability in buffers (Solution stability; pH 4 and pH 6 buffers, up to 7 days at 50° C. or exposed to light): stable
- stability upon exposure to elevated temperature and humidity [3]: stable
- reversible water uptake ([4]; between 0 and 90% RH at 25° C.): < 2 % w/w
- reversible water uptake ([4]; between 0 and 90% relative humidity at 25° C.): < 2 % wt/wt

Compound: C[N+]1(C)[C@@H]2C[C@@H](OC(=O)C(O)(c3cccs3)c3cccs3)C[C@H]1[C@@H]1O[C@@H]12 [tiotropium]
- time post dose of highest potency at inhibiting pilocarpine-induced salivation [5]: 6 h
- ID50 (MCh response): 6 µg/mL
- fold more potent at 6 hr and 24 hr compared to 1.5 hr potency (MCh response; 6 hr and 24 hr post-dose): about 2 fold
- time of peak bronchoprotection post-dose (MCh response; slow onset of effect): 6 h

Compound: C[N+]1(C)CCC(OC(=O)C(O)(c2ccccc2)C2CCCC2)C1 (centres unmarked) [glycopyrrolate]
- ID50 (MCh response): 15 µg/mL

Compound: CC(C)[N+]1(C)[C@@H]2CC[C@H]1C[C@@H](OC(=O)C(CO)c1ccccc1)C2 (some centres unmarked) [ipratropium]
- fold less potent 6-hr post-dose compared to 1.5 hr potency (MCh response; 10 and 30 μg/ml, 6 hr post-dose): about 3 fold
- ID50 (MCh response): 4.4 µg/mL

Compound: CN(CCN1CCC(OC(=O)Nc2ccccc2-c2ccccc2)CC1)C(=O)c1ccc(CN2CCC(C(N)=O)CC2)cc1 [compound of formula I, biphenyl-2-ylcarbamic acid 1-(2-{[4-(4-carbamoylpiperidin-1-ylmethyl)benzoyl]methylamino}ethyl)piperidin-4-yl ester]
- Ki (hM3 receptor): < 5 nM
- Ki [6]: < 5 nM
